Data: US20230331655A1, “HYDROXYN[…] AND METHODS OF USE THEREOF” (UNIVERSITY OF MARYLAND, BALTIMORE, priority 2020, published 2023)

Tests used:
[1] = pharmacokinetics in plasma and brain after intraperitoneal administration (UPLC-MS/MS); format: in vivo, mouse; parameters: key to Brain Concentration over time, sex-dependent difference / Plasma Concentration over time, sex-dependent difference: F, female; M, male; NS, not statistically different; conditions: i.p. 5 mg/kg; for t1/2 Brain / t1/2 Plasma: terminal half-life; for Brain Concentration over time, sex-dependent difference / Plasma Concentration over time, sex-dependent difference / Brain Total exposure (AUC), sex-dependent difference / Plasma Total exposure (AUC), sex-dependent difference: female vs male mice; for Brain Concentration over time, sex-dependent difference / Plasma Concentration over time, sex-dependent difference: ANOVA, Holm-Šídák post-hoc; for Brain Total exposure (AUC), sex-dependent difference / Plasma Total exposure (AUC), sex-dependent difference: t-test; for brain concentration at 4 h post-treatment: LLOQ 5.0 ng/ml
Method: Male and female CD-1 mice (Charles Rivers Laboratories, Raleigh, NC, USA), 8-11 weeks old at the time of testing, were habituated to the University of Maryland (Baltimore, MD, USA) animal facility for at least one week prior to testing. Mice were group housed 4-5 per cage with a constant 12-hour light cycle (lights on/off at 07:00/19:00). Food and water were available ad libitum. All experiments were performed during the light phase. All animal studies were approved by the University of Maryland School of Medicine Institutional Animal Care and Use Committee and conducted in accordance with the National Institutes of Health Guide for the Care and Use of Laboratory Animals.
(2R,6R)-HNK hydrochloride, (2S,6S)-HNK hydrochloride, (2R,6S)-HNK, (2S,6R)-HNK, (2R,5R)-HNK, (2S,5S)-HNK, (2R,5S)-HNK, (2S,5R)-HNK, (2R,4R)-HNK, (2S,4S)-HNK, (2R,4S)-HNK, and (2S,4R)-HNK hydrochloride were synthesized at the National Center for Advancing Translation Sciences (National Institutes of Health, Rockville, MD, USA) using methods previously described in Morris et al., Org Lett 17:4572-4575 (2017), which is incorporated by reference herein in its entirety. (5R)-methyl-(2R,6R)-HNK was obtained from Organix Inc. (Woburn, MA, USA) or from the National Center for Advancing Translational Sciences (Rockville, MD, USA); synthesis and characterization are described in the Supplemental Information. All compounds were dissolved in 20% (w/v) cyclodextrin (Sigma Aldrich, USA) in saline and administered intraperitoneally (i.p.) in a volume of 7.5 ml/kg.
At 10 min (0.167 h), 30 min (0.5 h), 1 h, 2 h, and 4 h post-treatment, mice were deeply anesthetized (3.5% isoflurane for approximately 2 min). Trunk blood was collected into 1.5-ml polypropylene tubes containing 30 μl of disodium EDTA (0.5 M, pH 8.0) and kept on ice until plasma collection (<30 min). Brains were then removed, flash-frozen in isopentane, and stored at −80° C. until analysis. Blood was centrifuged at 8000×g for 6 min at 4° C. to obtain plasma. Plasma was collected into clean microcentrifuge tubes and stored at −80° C. until analysis.
Ultra-performance liquid chromatography-tandem mass spectrometry (UPLC-MS/MS) methods were developed and optimized to determine the concentration of each HNK in mouse plasma and brain samples following systemic administration. Mass spectrometric analysis was performed on a Waters Xevo TQ-S triple quadrupole instrument using electrospray ionization in positive mode with the selected reaction monitoring. The separation of HNKs from endogenous components was performed on a Waters Acquity UPLC with 0.5 ml/min flow rate and gradient elution. The mobile phase A and B were 0.1% formic acid in water and 0.1% formic acid in acetonitrile, respectively. Plasma and brain concentrations of (2R,6R)-, (2S,6S)-, (2R,4S)-, and (2S,4R)-HNK were determined by hydrophilic interaction liquid chromatography-tandem mass spectrometry (HILIC UPLC-MS/MS) using a BEH amide column (1.7μ, 2.1×50 mm). Plasma and brain concentrations of (2R,6S)-, (2S,6R)-, (2R,5R)- (2S,5S)-, (2R,5S)-, (2S,5R)-, (2R,4R)-, and (2S,4S)-HNK; and (5R)-methyl-(2R,6R)-HNK were determined by reversed phase UPLC-MS/MS based upon a previously described protocol with several modifications using a BEH C18 column ([…], 2.1×50 mm). See Moaddel et al., Talanta 82:1892-1904 (2010), and Zanos et al., Nature 533:481-486 ([…]), both of which are incorporated by reference herein in their entireties.
The gradient for HILIC UPLC method was: 0-0.2 min 98% B; 0.2-1.4 min 98% to 35% B; 1.4-1.8 min 35% to 10% B, 1.9-2.4 min 98% B. The gradient for BEH Cis UPLC method was: 0-0.2 min 1% B; 0.2-1.4 min 1% to 35% B; 1.4-1.8 min 35% to 98% B, 1.8-2.2 min 98% B, 2.3 min 1% B. The analytical run time of the UPLC methods was 2.5 min. The calibration standards and quality control samples were prepared in blank mouse plasma and brain homogenate. Calibration standards ranged from 5.0-5000 ng/ml. […]

NMDARs = conditions: read-out: Ki (binding / inhibition of NMDARs); cited from earlier work

## N[C@@]1(c2ccccc2Cl)C[C@H](O)CCC1=O [(2R,4R)-HNK]
[1]; female mice
  B:P ratio (brain to plasma AUC ratio): 1.2
  t1/2 Brain: 30 min
  t1/2 Plasma: 30 min
[1]
  Brain Concentration over time, sex-dependent difference: F > M at 10 min
  Plasma Concentration over time, sex-dependent difference: F > M at 10 min
  Brain Total exposure (AUC), sex-dependent difference: M > F
  Plasma Total exposure (AUC), sex-dependent difference: M > F
[1]; male mice
  B:P ratio (brain to plasma AUC ratio): 1.3
  Tmax in the brain: 30 min
  t1/2 Brain: 36 min
  t1/2 Plasma: 36 min

## N[C@@]1(c2ccccc2Cl)C[C@@H](O)CCC1=O [(2R,4S)-HNK]
[1]; female mice
  B:P ratio (brain to plasma AUC ratio): 1.0
  t1/2 Brain: 18 min
  t1/2 Plasma: 42 min
[1]
  Brain Concentration over time, sex-dependent difference: M > F at 10, 30, 60 min
  Plasma Concentration over time, sex-dependent difference: M > F at 10, 30 min
  Brain Total exposure (AUC), sex-dependent difference: M > F
  Plasma Total exposure (AUC), sex-dependent difference: M > F
[1]; females, but not males
  brain concentration at 4 h post-treatment: below LLOQs
[1]; male mice
  B:P ratio (brain to plasma AUC ratio): 1.1
  t1/2 Brain: 30 min
  t1/2 Plasma: 36 min

## N[C@@]1(c2ccccc2Cl)CC[C@@H](O)CC1=O [(2R,5R)-HNK]
[1]; female mice
  B:P ratio (brain to plasma AUC ratio): 1.4
  t1/2 Brain: 30 min
  t1/2 Plasma: 30 min
[1]
  Brain Concentration over time, sex-dependent difference: NS
  Plasma Concentration over time, sex-dependent difference: main effect of sex, M > F
  Plasma Total exposure (AUC), sex-dependent difference: M > F
[1]; male mice
  B:P ratio (brain to plasma AUC ratio): 1.2
  t1/2 Brain: 24 min
  t1/2 Plasma: 30 min

## N[C@@]1(c2ccccc2Cl)CC[C@H](O)CC1=O [(2R,5S)-HNK]
[1]; female mice
  B:P ratio (brain to plasma AUC ratio): 1.0
  Tmax in the brain: 30 min
  t1/2 Brain: 30 min
  t1/2 Plasma: 30 min
[1]
  Brain Concentration over time, sex-dependent difference: F > M at 10, 30 min
  Plasma Concentration over time, sex-dependent difference: F > M at 10, 30 min
  Brain Total exposure (AUC), sex-dependent difference: F > M
  Plasma Total exposure (AUC), sex-dependent difference: F > M
[1]; male mice
  B:P ratio (brain to plasma AUC ratio): 0.9
  t1/2 Brain: 30 min
  t1/2 Plasma: 30 min

## N[C@]1(c2ccccc2Cl)C[C@H](O)CCC1=O [(2S,4R)-HNK]
[1]; both sexes
  brain concentration at 4 h post-treatment: below LLOQs
[1]; female mice
  B:P ratio (brain to plasma AUC ratio): 1.0
  t1/2 Brain: 18 min
  t1/2 Plasma: 24 min
[1]
  Brain Concentration over time, sex-dependent difference: F > M at 10 min
  Plasma Concentration over time, sex-dependent difference: F > M at 10 min
[1]; male mice
  B:P ratio (brain to plasma AUC ratio): 0.9
  t1/2 Brain: 24 min
  t1/2 Plasma: 30 min

## N[C@]1(c2ccccc2Cl)C[C@@H](O)CCC1=O [(2S,4S)-HNK]
[1]; female mice
  B:P ratio (brain to plasma AUC ratio): 0.9
  t1/2 Brain: 36 min
  t1/2 Plasma: 42 min
[1]
  Brain Concentration over time, sex-dependent difference: F > M at 10, 30 min
  Plasma Concentration over time, sex-dependent difference: F > M at 10, 30 min
  Brain Total exposure (AUC), sex-dependent difference: F > M
  Plasma Total exposure (AUC), sex-dependent difference: F > M
[1]; male mice
  B:P ratio (brain to plasma AUC ratio): 0.7
  t1/2 Brain: 36 min
  t1/2 Plasma: 42 min

## N[C@]1(c2ccccc2Cl)CC[C@@H](O)CC1=O [(2S,5R)-HNK]
[1]; female mice
  B:P ratio (brain to plasma AUC ratio): 1.0
  t1/2 Brain: 30 min
  t1/2 Plasma: 30 min
[1]
  Brain Concentration over time, sex-dependent difference: NS
  Plasma Concentration over time, sex-dependent difference: M > F at 30, 60 min
  Brain Total exposure (AUC), sex-dependent difference: M > F
  Plasma Total exposure (AUC), sex-dependent difference: M > F
[1]; male mice
  B:P ratio (brain to plasma AUC ratio): 0.7
  Tmax in the brain: 30 min
  t1/2 Brain: 42 min
  t1/2 Plasma: 36 min

## N[C@]1(c2ccccc2Cl)CC[C@H](O)CC1=O [(2S,5S)-HNK]
[1]; both sexes
  brain concentration at 4 h post-treatment: below LLOQs
[1]; female mice
  B:P ratio (brain to plasma AUC ratio): 1.3
  t1/2 Brain: 18 min
  t1/2 Plasma: 36 min
[1]
  Brain Concentration over time, sex-dependent difference: NS
  Plasma Concentration over time, sex-dependent difference: NS
[1]; male mice
  B:P ratio (brain to plasma AUC ratio): 1.2
  t1/2 Brain: 18 min
  t1/2 Plasma: 30 min

## CNC1(c2ccccc2Cl)CCCCC1=O (stereo not shown) [ketamine, reference compound]
NMDARs
  Ki: 250 to 1060 nM
